Laboratory results reported in PubChem BioAssay (NCI).
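Following 48 hours of exposure in 96-well plates, responses at five concentrations were used to interpolate endpoints linearly. TGI denotes the concentration required for complete inhibition of growth.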

Experiments:
Assay in all cases: NCI tumour cell line growth inhibition, 48 h
HL-60(TB) leukemia = system: HL-60(TB) leukemia
PC-3 prostate = system: PC-3 prostate
MDA-MB-231 breast = system: MDA-MB-231 breast
CAKI-1 renal = system: CAKI-1 renal
A549 NSCLC = system: A549 NSCLC
HCC-2998 colon = system: HCC-2998 colon
HT29 colon = system: HT29 colon
T-47D breast = system: T-47D breast
A498 renal = system: A498 renal
ACHN renal = system: ACHN renal
SW-620 colon = system: SW-620 colon
SNB-19 CNS = system: SNB-19 CNS
786-0 renal = system: 786-0 renal
IGROV1 ovarian = system: IGROV1 ovarian
KM12 colon = system: KM12 colon
OVCAR-5 ovarian = system: OVCAR-5 ovarian
NCI/ADR-RES ovarian = system: NCI/ADR-RES ovarian
SK-MEL-2 melanoma = system: SK-MEL-2 melanoma
SNB-75 CNS = system: SNB-75 CNS

| Structure (SMILES) | TGI (HL-60(TB) leukemia) [µM] | TGI (PC-3 prostate) [µM] | TGI (MDA-MB-231 breast) [µM] | TGI (CAKI-1 renal) [µM] | TGI (A549 NSCLC) [µM] | TGI (HCC-2998 colon) [µM] | TGI (HT29 colon) [µM] | TGI (T-47D breast) [µM] | TGI (A498 renal) [µM] | TGI (ACHN renal) [µM] | TGI (SW-620 colon) [µM] | TGI (SNB-19 CNS) [µM] | TGI (786-0 renal) [µM] | TGI (IGROV1 ovarian) [µM] | TGI (KM12 colon) [µM] | TGI (OVCAR-5 ovarian) [µM] | TGI (NCI/ADR-RES ovarian) [µM] | TGI (SK-MEL-2 melanoma) [µM] | TGI (SNB-75 CNS) [µM] |
| --- | --- | --- | --- | --- | --- | --- | --- | --- | --- | --- | --- | --- | --- | --- | --- | --- | --- | --- | --- |
| COc1cccc(-c2nc3ccccc3c(=O)[nH]2)c1 | > 100 | 41.7 | 58.9 | 37.1 | 49.4 | 54.3 | 55.5 | 50.5 | 51.6 | 37.4 | > 100 | 46.7 | 28.1 | 58.8 | 86.9 | > 100 | 51.8 | > 100 |  |
| Cc1sc(Nc2ccc(Nc3nc(-c4ccccc4)c(C)s3)cc2)nc1-c1ccccc1 |  | 48.4 | > 100 | > 100 | > 100 | 50.5 | > 100 | > 100 | > 100 | > 100 | > 100 | > 100 | > 100 | > 100 | > 100 | > 100 | > 100 | 76.4 | > 100 |
| COc1ccc2c(c1)CC[C@@H]1[C@@H]2CC[C@]2(C)C(=O)/C(=C/c3ccc(N(C)C)cc3)C[C@@H]12 | > 100 | > 100 | > 100 | 71.7 | > 100 | > 100 |  | > 100 | > 100 | > 100 | > 100 | > 100 | 80.7 |  | > 100 | > 100 | > 100 | 84.6 | 52.3 |
| NC(=O)c1ccc(C(=O)Nc2ccc([As](=O)(O)O)cc2)cc1 | > 100 | > 100 | > 100 | > 100 | > 100 |  | > 100 | > 100 | > 100 | > 100 | > 100 | > 100 | > 100 | > 100 | > 100 | > 100 | > 100 | > 100 | > 100 |
| O=C1NC(N/N=C/C(O)C(O)C(O)C(O)CO)=N/C1=C\c1ccco1 (stereo not given) | > 100 | > 100 | > 100 | > 100 | > 100 |  | > 100 | > 100 | > 100 | > 100 | > 100 | > 100 | > 100 | > 100 | > 100 | > 100 | > 100 | > 100 | > 100 |
| CCOC(=O)c1c(SC(=O)c2ccc(C(C)(C)C)cc2)n(-c2ccccc2)c(=S)n(-c2ccccc2)c1=O | > 100 | > 100 | > 100 | > 100 | > 100 | > 100 | > 100 | > 100 | > 100 | > 100 | > 100 | > 100 | > 100 | > 100 | > 100 | > 100 | > 100 |  | > 100 |
| Nc1ccccc1-c1noc(=O)[nH]1 |  | > 100 | > 100 | > 100 | > 100 | > 100 | > 100 | > 100 | > 100 | > 100 | > 100 | > 100 | > 100 | > 100 | > 100 | > 100 | > 100 | > 100 | > 100 |
| CSC(=N/C=C/c1ccccc1)SC | > 100 | > 100 | > 100 | > 100 | > 100 |  | > 100 | > 100 | > 100 | > 100 | > 100 | > 100 | > 100 | > 100 | > 100 | > 100 | > 100 | > 100 | > 100 |
| C[N+](C)(CCCn1ccnc1[N+](=O)[O-])CCCn1ccnc1[N+](=O)[O-] | > 100 | > 100 | > 100 | > 100 | > 100 |  | > 100 | > 100 | > 100 | > 100 | > 100 |  | > 100 | > 100 | > 100 | > 100 | > 100 | > 100 | > 100 |
| Nc1ncc(Br)c(NCC2(CO)CCC2)n1 | > 100 | > 100 | > 100 | > 100 | > 100 | > 100 | > 100 | 63.4 | > 100 | > 100 | > 100 |  | > 100 | > 100 | > 100 | > 100 | > 100 | > 100 | > 100 |
| N=C(N)c1ccc(/C=C/c2ccc(C(=N)N)cc2)cc1 |  | > 100 | > 100 | > 100 | > 100 | > 100 | > 100 | > 100 | 73.7 | > 100 | > 100 | > 100 | > 100 | > 100 | > 100 | > 100 | > 100 | 87.3 | > 100 |
| C=CCC1(O)CC(n2cc(C)c(=O)[nH]c2=O)OC1CO[Si](C)(C)C(C)(C)C (stereo not given) |  | > 100 | > 100 | > 100 | > 100 | > 100 | > 100 | > 100 | > 100 | > 100 | > 100 | > 100 | > 100 | > 100 | > 100 | > 100 | > 100 | > 100 | > 100 |
| CC(=O)c1cccc(Nc2nc3ccccc3c3occc23)c1 | > 100 | > 100 | 56.4 | > 100 | > 100 | > 100 | > 100 | > 100 | 30.5 | 39.9 |  | 60.9 | 40 |  | > 100 | > 100 | > 100 |  | 45.2 |
